± gives the standard deviation of the averaged measurements.
What was measured:
U-2 OS [1] = experiment: cell painting activity score (Mahalanobis distance from DMSO wells); higher = stronger morphological phenotype; conditions: 24 h
Summary of the method: (§1)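 In this cell painting assay, roughly 1,500 U-2 OS cells per well in 384-well plates were pin-tool treated at 37 °C for 24 h, typically at six 2-fold steps from 20 μM down to 625 nM. Cells were stained with MitoTracker, concanavalin A, phalloidin, wheat germ agglutinin, Hoechst and SYTO 14, imaged on an Opera Phenix, and analysed in CellProfiler with normalization to same-plate DMSO cells. Reported values are means of four replicate plates, with the activity score defined as the Mahalanobis distance from DMSO wells and cell count defined relative to DMSO wells.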

U-2 OS [2] = experiment: total intracellular glutathione (GSH + GSSG) relative to DMSO (% of control); higher = more glutathione; conditions: 24 h
Protocol: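 Total intracellular glutathione (GSH + GSSG) in U-2 OS cells by GSH/GSSG-Glo after 24 h compound treatment at 5, 10 and 20 uM (some at 40 and 80 uM), as percent of DMSO control. Five technical replicate plates, averaged.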

U-2 OS [3] = experiment: cell viability (CellTiter-Glo) relative to DMSO (% of control); higher = more viable; conditions: 24 h
Protocol: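 Cell viability of U-2 OS cells by CellTiter-Glo after 24 h compound treatment at 5, 10 and 20 uM (some at 40 and 80 uM), measured in parallel with the glutathione assay, as percent of DMSO control. Five technical replicate plates, averaged.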

U-2 OS [4] = experiment: relative cell count vs DMSO (cell painting) (fraction of DMSO control); higher = more cells remaining (less cytotoxic); conditions: 24 h
Summary of the method: as §1

U-2 OS [5] = experiment: AUC of culture confluence over time (live-cell imaging) (AUC (confluence % x time)); higher = more confluent culture (less growth inhibition)
Protocol: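 Live-cell Incucyte imaging of U-2 OS cells in F-12K medium. Compounds were tested mostly at 5, 10 and 20 uM, and cells were imaged every 4 h for up to 60 h. Value is the area under the curve of phase-contrast confluence over time.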

Row | SMILES | cell painting activity score (U-2 OS [1]; 0.625 µM) | cell painting activity score (U-2 OS [1]; 1.25 µM) | cell painting activity score (U-2 OS [1]; 2.5 µM) | cell painting activity score (U-2 OS [1]; 5 µM) | cell painting activity score (U-2 OS [1]; 10 µM) | cell painting activity score (U-2 OS [1]; 20 µM) | total intracellular glutathione (U-2 OS [2]; 5 µM) | total intracellular glutathione (U-2 OS [2]; 10 µM) | total intracellular glutathione (U-2 OS [2]; 20 µM) | total intracellular glutathione (U-2 OS [2]; 40 µM) | total intracellular glutathione (U-2 OS [2]; 80 µM) | cell viability (U-2 OS [3]; 5 µM) | cell viability (U-2 OS [3]; 10 µM) | cell viability (U-2 OS [3]; 20 µM) | cell viability (U-2 OS [3]; 40 µM) | cell viability (U-2 OS [3]; 80 µM) | relative cell count (U-2 OS [4]; 0.625 µM) | relative cell count (U-2 OS [4]; 1.25 µM) | relative cell count (U-2 OS [4]; 2.5 µM) | relative cell count (U-2 OS [4]; 5 µM) | relative cell count (U-2 OS [4]; 10 µM) | relative cell count (U-2 OS [4]; 20 µM) | AUC of culture confluence over time (U-2 OS [5]; 5 µM) | AUC of culture confluence over time (U-2 OS [5]; 10 µM) | AUC of culture confluence over time (U-2 OS [5]; 20 µM)
1 | CCCC[S@](=N)(=O)CC[C@H](N)C(=O)O | 3.99 | 4.5 | 4.98 | 4.52 | 4 | 4.46 | 19.6 ± 2 | 16.8 ± 2.1 | 14.1 ± 1.3 | 11 ± 1.6 | 10.7 ± 1 | 101 ± 5.1 | 99.5 ± 3.6 | 95 ± 4.3 | 101 ± 6.9 | 106 ± 4 | 0.986 | 1.04 | 0.992 | 1.04 | 1.01 | 1.06 | – | – | –
2 | O=C1C(Cl)=C(NCCN2CCOCC2)C(=O)c2ncccc21 | 5.61 | 10.4 | 14.7 | 21.2 | 26.9 | 26.9 | 1.89 ± 0.18 | 2.12 ± 0.18 | 1.91 ± 0.3 | – | – | 0.868 ± 0.067 | 0.657 ± 0.091 | 0.819 ± 0.053 | – | – | 0.808 | 0.755 | 0.474 | 0.317 | 0.049 | 0.0399 | 16.5 | 14.9 | 12
3 | CN(C)C/C=C/C(=O)Nc1cc2c(Nc3ccc(F)c(Cl)c3)ncnc2cc1O[C@H]1CCOC1 | 8.62 | 12.1 | 12.2 | 11.2 | 12.6 | 18.5 | 101 ± 4.4 | 110 ± 3.7 | 105 ± 2.6 | – | – | 63 ± 4 | 52.4 ± 3.5 | 47.2 ± 2.5 | – | – | 0.955 | 0.955 | 0.877 | 0.894 | 0.538 | 0.275 | – | – | –
4 | C[C@@H]1O[C@@H](O[C@H]2[C@H](OC(=O)[C@]34CCC(C)(C)C[C@H]3C3=CC[C@@H]5[C@@]6(C)C[C@H](O)[C@H](O[C@@H]7O[C@H](CO)[C@@H](O)[C@H](O)[C@H]7O)[C@@](C)(CO)[C@@H]6CC[C@@]5(C)[C@]3(C)CC4)O[C@H](CO)[C@@H](O)[C@@H]2O)[C@H](O)[C@H](O)[C@H]1O[C@@H]1OC[C@@H](O)[C@H](O)[C@H]1O | 4.19 | 4.7 | 5.42 | 5.5 | 6.76 | 3.23 | – | – | – | – | – | – | – | – | – | – | 0.996 | 0.972 | 0.947 | 0.97 | 0.984 | 0.999 | 52.4 | 46.4 | 51
5 | COc1cc(OC)c2ccccc2c1C=C1C(=O)NC(=S)NC1=O | 13.6 | 16.2 | 16.1 | 16.1 | 18 | 17.8 | – | – | – | – | – | – | – | – | – | – | 0.833 | 0.687 | 0.472 | 0.428 | 0.377 | 0.379 | 13.1 | 12.8 | 13.6
6 | O=C(O)CSc1cc(NS(=O)(=O)c2ccc(Br)cc2)c2ccccc2c1O | 4.65 | 5.25 | 6.44 | 7.75 | 8.94 | 11.1 | – | – | – | – | – | – | – | – | – | – | 0.954 | 0.952 | 0.961 | 0.926 | 0.881 | 0.694 | 44 | 35.2 | 25.1
7 | CCCCc1c(-c2ccc(OC)cc2)[nH]c2nccnc12 | 4.99 | 3.58 | 6.25 | 6.12 | 8.25 | 8.09 | – | – | – | – | – | – | – | – | – | – | 1.01 | 0.952 | 0.968 | 0.949 | 0.927 | 0.624 | 53.2 | 47.6 | 52.7
8 | O=C1C(NCCN2CCOCC2)=C(Cl)C(=O)c2ncccc21 | 13.7 | 13.9 | 19.1 | 25.9 | 25.2 | 24.1 | 2.27 ± 0.32 | 1.68 ± 0.27 | 2.13 ± 0.32 | – | – | 0.456 ± 0.11 | 0.267 ± 0.043 | 0.463 ± 0.11 | – | – | 0.572 | 0.496 | 0.191 | 0.0808 | 0.0881 | 0.111 | 13.2 | 12.9 | 13
9 | COc1ccc(/C=C/C(=O)O[C@@H]2[C@H](O[C@@H]3O[C@@H](C)[C@H](O)[C@@H](O)[C@H]3O)[C@@H](O[C@@H]3O[C@@H](C)[C@H](O[C@@H]4OC[C@@H](O[C@@H]5O[C@H](CO)[C@H](O)[C@H](O)[C@H]5O)[C@H](O)[C@H]4O)[C@@H](O)[C@H]3O)[C@H](OC(=O)[C@]34CCC(C)(C)C[C@H]3C3=CC[C@@H]5[C@@]6(C)C[C@H](O)[C@H](O[C@@H]7O[C@H](CO)[C@@H](O)[C@H](O)[C@H]7O)[C@@](C)(C(=O)O)[C@@H]6CC[C@@]5(C)[C@]3(CO)CC4)O[C@@H]2C)cc1 | 8.17 | 11.2 | 12.4 | 9.11 | 10.1 | 37.6 | – | – | – | – | – | – | – | – | – | – | 1.07 | 0.975 | 0.938 | 0.66 | 0.252 | 0.035 | 43.7 | 44.3 | 14.2
10 | CCN(CCO)CCCOc1ccc2c(Nc3cc(CC(=O)Nc4cccc(F)c4)[nH]n3)ncnc2c1 | 14.3 | 14.4 | 14.3 | 14.3 | 14.5 | 14.9 | – | – | – | – | – | – | – | – | – | – | 0.771 | 0.757 | 0.76 | 0.8 | 0.788 | 0.757 | 30.4 | 32.1 | 29.6
11 | O=NN(CCCl)C(=O)NCCCl | 4.49 | 4.2 | 5.44 | 4.8 | 6.45 | 8.52 | – | – | – | – | – | – | – | – | – | – | 1.01 | 0.934 | 0.932 | 0.946 | 0.929 | 0.856 | 44.8 | 47.8 | 42.3
12 | CC(C)(C)C(=O)OCOc1cccc2ccccc12 | 4.69 | 4.3 | 6.34 | 5.83 | 8.37 | 7.3 | – | – | – | – | – | – | – | – | – | – | 1.01 | 0.983 | 0.997 | 0.97 | 0.974 | 1.01 | 45.5 | 44.2 | 46.3
13 | CC(=O)N[C@@H](CCCCNC(=O)CSCCNC(=O)CCNC(=O)[C@H](O)C(C)(C)COP(=O)(O)OP(=O)(O)OC[C@H]1O[C@@H](n2cnc3c(N)ncnc32)[C@H](O)[C@@H]1OP(=O)(O)O)C(N)=O.O=C(O)C(F)(F)F | 3.32 | 5.02 | 3.77 | 3.73 | 4.57 | 4.45 | – | – | – | – | – | – | – | – | – | – | 0.896 | 0.879 | 0.923 | 0.883 | 0.875 | 0.903 | 44.2 | 44.8 | 42.4
14 | COc1cc([C@@H]2c3cc4c(cc3[C@@H](O[C@@H]3O[C@@H]5CO[C@@H](C)O[C@H]5[C@H](O)[C@H]3O)[C@H]3COC(=O)[C@H]23)OCO4)cc(OC)c1O | 11.9 | 14 | 12.9 | 14.6 | 14.4 | 15.2 | – | – | – | – | – | – | – | – | – | – | 0.661 | 0.635 | 0.568 | 0.604 | 0.551 | 0.536 | 26.2 | 24.8 | 18.3
